Experimental data: publication PMC7562898, “Homogeneous single-label cGMP detection platform for the functional study of nitric oxide-sensitive (soluble) guanylyl cyclases and cGMP-specific phosphodiesterases” (Scientific Reports, 2020)
Read-outs that look alike come from different tables or passages of the source.

What was measured:
sGC [1] = biological target: T1, sGC (Homo sapiens, UniProt Q02108+Q02153); test: sGC activity assay, endpoint QRET cGMP detection; assay type: biochemical; settings: for EC50: 2 ng sGC, 0.5 mM GTP, 30 min at 37 °C, read-out: EC50 of concentration dependent sGC activation; for effect on sGC activity at fixed saturating concentration: 10 µM NS2028, 10 µM DEA-NO; for fold increase for cGMP compared to untreated sGC: 100 µM gemfibrozil or 10 µM DEA-NO
T1 construct: Full-length sGC was purified from Sf9 cells as described previously; made in house; host or cells: Sf9 cells
T1 sequence (Q02108 1-690): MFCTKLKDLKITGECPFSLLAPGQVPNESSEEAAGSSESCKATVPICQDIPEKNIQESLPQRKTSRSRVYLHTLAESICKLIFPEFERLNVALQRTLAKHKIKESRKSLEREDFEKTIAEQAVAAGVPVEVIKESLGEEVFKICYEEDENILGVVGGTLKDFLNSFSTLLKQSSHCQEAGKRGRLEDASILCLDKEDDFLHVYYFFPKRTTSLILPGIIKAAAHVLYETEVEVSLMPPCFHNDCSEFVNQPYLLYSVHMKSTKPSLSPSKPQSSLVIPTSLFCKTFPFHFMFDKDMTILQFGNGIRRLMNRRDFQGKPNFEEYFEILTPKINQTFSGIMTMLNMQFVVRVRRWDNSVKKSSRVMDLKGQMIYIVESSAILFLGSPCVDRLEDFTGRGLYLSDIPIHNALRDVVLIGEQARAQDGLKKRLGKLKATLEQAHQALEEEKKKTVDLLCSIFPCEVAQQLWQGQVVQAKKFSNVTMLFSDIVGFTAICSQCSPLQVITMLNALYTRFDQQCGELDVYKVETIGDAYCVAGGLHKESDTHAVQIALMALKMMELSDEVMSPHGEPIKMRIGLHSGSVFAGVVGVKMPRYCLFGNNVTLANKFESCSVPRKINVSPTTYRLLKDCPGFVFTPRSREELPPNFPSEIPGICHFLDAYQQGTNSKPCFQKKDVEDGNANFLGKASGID
T1 sequence (Q02153 1-619): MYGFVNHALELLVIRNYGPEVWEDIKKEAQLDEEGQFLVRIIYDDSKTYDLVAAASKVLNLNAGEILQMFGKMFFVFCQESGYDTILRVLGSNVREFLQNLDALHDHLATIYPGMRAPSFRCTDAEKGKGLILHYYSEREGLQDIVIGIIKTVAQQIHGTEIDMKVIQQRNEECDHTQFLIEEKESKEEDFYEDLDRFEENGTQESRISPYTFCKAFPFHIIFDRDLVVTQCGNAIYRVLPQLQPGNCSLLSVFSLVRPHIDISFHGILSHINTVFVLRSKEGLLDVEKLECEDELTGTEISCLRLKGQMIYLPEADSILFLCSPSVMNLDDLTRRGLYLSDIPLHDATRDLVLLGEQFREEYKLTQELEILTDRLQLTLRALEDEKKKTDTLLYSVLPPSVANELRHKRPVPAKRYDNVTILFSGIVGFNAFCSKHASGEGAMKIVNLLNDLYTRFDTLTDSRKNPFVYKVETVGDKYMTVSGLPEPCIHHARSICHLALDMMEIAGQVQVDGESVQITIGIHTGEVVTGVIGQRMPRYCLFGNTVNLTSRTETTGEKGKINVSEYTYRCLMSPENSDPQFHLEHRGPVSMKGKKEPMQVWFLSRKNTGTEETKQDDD
Protocol: Optimized cGMP detection platform was applied to all enzymatic assays. For non-stimulated conditions, purified sGC enzyme (0.04–276 ng/well) was incubated with or without 0.5 mM GTP in the assay buffer 2 for 10 to 45 min at 37 °C in 5 µL volume. The reaction was stopped by adding 5 µL of detection solution (0.4 µg/ml cGMP antibody, 5 nM Eu(III)-cGMP, and 2.2 µM MT2) containing EDTA. For NO stimulated sGC activity, the same reactions were performed in the presence of 10 or 100 µM DEA-NO added with GTP. DEA-NO was always prepared from a 100 mM stock solution in 10 mM NaOH, which was stored at − 80 °C. TRF-signals were always monitored multiple times between 5 to 90 min to determine the TRF-signal stability.
In assays where dose-dependent effect of three sGC activators, DEA-NO, YC-1, and riociguat, were tested, the compounds (0–100 µM) were incubated with 2 ng sGC. Reactions were initiated by adding 0.5 mM GTP to reach 5 µL volume and incubated for 30 min at 37 °C. Reactions were stopped by adding 5 µL of detection solution and TRF-signals were recorded. To evaluate the linearity of the cGMP production by sGC, 3 or 12 ng of sGC were used for resting conditions and 0.5 ng for 100 µM DEA-NO activated sGC. Assays were performed in separate plates and reactions were stopped at indicated time points (5–60 min), before TRF-signal monitoring as above.
For assays containing fixed concentration of sGC regulators, 5 ng of sGC was incubated with one, or the indicated combination of following molecules: 10 µM NS2028, 100 nM BAY58-2667, 100 µM gemfibrozil, 10 µM BAY41-2272, 100 µM Cbi, 10 µM DEA-NO or SNP with glutathione (100 µM each). 5 µL reactions containing 0.5 mM GTP were incubated for 10 min at 37 °C and stopped by adding the detection components. TRF-signals were recorded as described above.
Cell lysate interferences were evaluated in an endpoint assay with different amounts of sGC (0.008–166.7 ng) and 0.07 or 0.14 mg/ml of COS7 cell lysate. sGC/lysate mixture was supplemented with 0.5 mM GTP in the presence or absence of 10 µM DEA-NO, and 5 µL reaction was incubated for 10 min at 37 °C. Detection components were thereafter added and TRF-signals were monitored as above.
Reproducibility and HTS compatibility were determined by running Z’-factor assay using 24 sGC reactions with or without activity modulation in three consecutive days. Assays were performed with fixed sGC concentration (5 ng/well) and sGC activation was performed using gemfibrozil (100 µM) or DEA NONOate (10 µM). All assays were initiated by the addition of 0.5 mM GTP to obtain a final 5 µL reaction volume, 37 °C for 10 min. Detection solution was added and TRF-signals were monitored as previously. Z’-factors were calculated using sGC basal activity as negative and activated reactions (NO or gemfibrozil) as positive controls.
In parallel to all assays, changes in TRF-signal in response to different concentrations of exogenously added cGMP were recorded to generate a cGMP standard curve. The cGMP standard was created using 1:3 dilution series to maximize the linear part of the standard, which was used to calculate the amount of cGMP generated by sGC during the reaction. Only at the linear area, the TRF-signal relation to cGMP concentration can be determined.

[2] = system: PDEs in mouse brain homogenate; test: cGMP hydrolysis (PDE activity) in mouse brain homogenate; assay type: biochemical; settings: 0.1 mg/ml homogenate, 50 µM cGMP, 15 min at 37 °C, 3 µM MT2; read-out: apparent IC50 of cGMP hydrolysis in mouse brain homogenate
Protocol: PDE inhibitors with varying specificity profile, BAY73-6691, sildenafil, and IBMX (0–500 µM), were assayed in a high-speed supernatants of mouse brain homogenates. Reactions were performed in 5 µL volume in the presence of 0.1 mg/ml of homogenate and 50 µM cGMP. After 15 min incubation at 37 °C, detection solution (0.4 µg/ml cGMP antibody, 5 nM Eu(III)-cGMP, and 3.0 µM MT2) was added and TRF-signals were recorded.

[3] = system: monoclonal cGMP-specific antibody; test: Homogeneous competitive QRET cGMP detection with cGMP-specific antibody; assay type: binding; settings: for recognition of the nucleotide by the antibody: nucleotide titration, data not shown
Protocol: All biochemical assays were performed in a 10 µL final volume using triplicate reactions and three individual experiments unless otherwise indicated. The non-enzymatic and real-time cGMP assays were performed in assay buffer 1 (20 mM HEPES, pH 7.5, 1 mM MgCl2, 0.005% γ-globulins, 0.01% Triton X-100), enzymatic end-point assays in assay buffer 2 (assay buffer 1 without 0.01% Triton X-100), and detection components ([…], antibody, and MT2) were added in the stop buffer (assay buffer 1 supplemented with 10 mM EDTA instead of 1 mM MgCl2). In all buffers, sGMP was equally detected. Buffers for end-point assay were optimized to avoid the used of Triton X-100 during the enzymatic sGC reaction, avoiding the progressive loss of heme, and by using the EDTA in stop buffer to chelate the enzyme essential MgCl2.
After initial assays, cGMP detection protocol was tested in cGMP titration with two antibody (2 ng/well and 4 ng/well) and two Eu(III)-cGMP (1 nM and 5 nM) concentrations. Titrated cGMP (0–250 µM) was added in 5 µL volume and detection solution containing Eu(III)-cGMP, cGMP antibody, and MT2 (1.2 µM or 2.2 µM) in 5 µL volume. Similar titrations were performed with other nucleotides (cAMP, GTP, ATP, ADP, and GMP). cGMP was also titrated in the presence of 0.5 mM GTP. In all of these assays, background controls were performed with six repeats and TRF-signals were monitored multiple times between 5 to 90 min to determine the TRF-signal stability.
Assays were performed with Eu(III)-cGMP concentration dependent individually fixed MT2 (1.2–3.2 µM) quencher concentration. TRF-signals were measured and the Eu(III)-cGMP equilibrium dissociation constant (Kd) for the cGMP-specific antibody was determined using linearized Cheng-Prusoff Equation[59].

PDE5A = system: PDE5A; set-up: method as in PMID 10574925; settings: read-out: Km of PDE5A for cGMP; cited from earlier work
sGC [4] = biological target: T1, sGC; set-up: method as in PMID 26777256; settings: cited from earlier work

With `CCN(CC)/[N+]([O-])=N/O.CCNCC` [DEA-NO, diethylamine NONOate] the EC50 (sGC [1]) was 0.93 ± 0.1 µM, the “effect on sGC activity at fixed saturating concentration” value (sGC [1]; 5 ng sGC, 10 min at 37 °C) was “largest increase in sGC activity” and the “NO-stimulated sGC specific activity in the presence of COS7 lysate” value (sGC [1]; 10 µM DEA-NO, 5 ng sGC/well, 10 min at 37 °C, 0.14 mg/ml COS7 lysate) was 19.3 ± 4.2 µmol/mg/min. The “NO-stimulated sGC specific activity” value (sGC [1]; 10 µM DEA-NO, 5 ng sGC/well, 10 min at 37 °C, buffer) was 4.8 ± 1.0 µmol/min/mg and the “fold increase for cGMP compared to untreated sGC” value (sGC [1]; 5 ng sGC/well, 10 min at 37 °C) was about 50 fold.
Work on `CC(C)Cn1c(=O)n(C)c(=O)c2[nH]cnc21` [IBMX, 3-isobutyl-1-methylxanthine] yielded an IC50 [2] of 9.9 ± 0.6 µM.
For `C[C@H](Cc1nc2c(cnn2-c2ccccc2Cl)c(=O)[nH]1)C(F)(F)F` [BAY73-6691], the IC50 [2] was 81.3 ± 4.8 µM.
For `Nc1ncnc2c1ncn2[C@@H]1O[C@H](COP(=O)(O)OP(=O)(O)O)[C@@H](O)[C@H]1O` [ADP], the “recognition of the nucleotide by the antibody” value (“recognition of the nucleotide” for short) [3] was “could not be recognized by the antibody”.
For `CCCc1nn(C)c2c(=O)[nH]c(-c3cc(S(=O)(=O)N4CCN(C)CC4)ccc3OCC)nc12` [sildenafil], the IC50 [2] was 45.2 ± 6.8 µM.
In the case of `O=c1onc2n1-c1cc(Br)ccc1OC2` [NS2028, 8-bromo-4H-2,5-dioxa-3,9b-diaza-cyclopenta[a]naphthalen-1-one], the “effect on sGC activity at fixed saturating concentration” value (sGC [1]; 5 ng sGC, 10 min at 37 °C) is reported as “no significant effect” and the “effect on sGC activation when assayed together with BAY58-2667 or gemfibrozil” value (sGC [1]; 10 µM NS2028 with 100 nM BAY58-2667 or 100 µM gemfibrozil, 5 ng sGC, 10 min at 37 °C) is reported as “increased the activation”.
With `Cc1ccc(C)c(OCCCC(C)(C)C(=O)O)c1` [gemfibrozil] the “fold increase for cGMP compared to untreated sGC” value (sGC [1]; 5 ng sGC/well, 10 min at 37 °C) was “approximately 20 fold”.
`COC(=O)N(C)c1c(N)nc(-c2nn(Cc3ccccc3F)c3ncccc23)nc1N` [riociguat] showed an EC50 (sGC [1]) of 0.26 ± 0.1 µM.
In the case of `Nc1nc2c(ncn2[C@@H]2O[C@@H]3COP(=O)(O)O[C@H]3[C@H]2O)c(=O)[nH]1` [cGMP, Cyclic 3´,5´-guanosine monophosphate], the EC50 ([3]; 1 nM Eu(III)-cGMP and 2 ng of antibody/well, read-out: EC50 value of cGMP titration (displacement of Eu(III)-cGMP from antibody)) is given as 0.72 ± 0.07 µM, the EC50 ([3]; 5 nM Eu(III)-cGMP and 4 ng of antibody/well, read-out: EC50 of cGMP titration (displacement of Eu(III)-cGMP from antibody)) is given as 1.8 ± 0.22 µM and the Km (PDE5A) is given as about 2 µM.
With `Nc1ncnc2c1ncn2[C@@H]1O[C@@H]2COP(=O)(O)O[C@H]2[C@H]1O` [cAMP, cyclic adenosine monophosphate] the “recognition of the nucleotide” value [3] was “could not be recognized by the antibody”.
With `Nc1ncnc2c1ncn2[C@@H]1O[C@H](COP(=O)(O)OP(=O)(O)OP(=O)(O)O)[C@@H](O)[C@H]1O` [ATP] the “recognition of the nucleotide” value [3] was “could not be recognized by the antibody”.
For `Nc1nc2c(ncn2[C@@H]2O[C@H](COP(=O)(O)OP(=O)(O)OP(=O)(O)O)[C@@H](O)[C@H]2O)c(=O)[nH]1` [GTP, guanosine triphosphate], the Km (sGC [4]; NO-activated sGC, read-out: Km for GTP, NO-activated sGC) is given as under 75 µM, the Km (sGC [4]; resting sGC, read-out: Km for GTP, resting sGC) is given as about 220 µM and the “specificity of the antibody for cGMP over the nucleotide” value [3] is given as 1000 fold.
With `OCc1ccc(-c2nn(Cc3ccccc3)c3ccccc23)o1` [YC-1, 3-(5′-hydroxymethyl-2′-furyl)-1-benzyl indazole] the EC50 (sGC [1]) was 5.7 ± 1 µM.
